{"source": "patent US20260376293A1", "about": "“METHODS FOR STUDYING GPR158 PHARMACOLOGY AND IDENTIFICATION OF ITS LIGANDS” (UNIVERSITY OF FLORIDA RESEARCH FOUNDATION, INCORPORATED, priority 2022, published 2026)", "molecular_target": "T1, GPR158 (Homo sapiens, UniProt Q5T848)", "T1 construct": "expressed in transfected cells; host or cells: HEK293T/17", "T1 sequence (Q5T848 24-1215)": "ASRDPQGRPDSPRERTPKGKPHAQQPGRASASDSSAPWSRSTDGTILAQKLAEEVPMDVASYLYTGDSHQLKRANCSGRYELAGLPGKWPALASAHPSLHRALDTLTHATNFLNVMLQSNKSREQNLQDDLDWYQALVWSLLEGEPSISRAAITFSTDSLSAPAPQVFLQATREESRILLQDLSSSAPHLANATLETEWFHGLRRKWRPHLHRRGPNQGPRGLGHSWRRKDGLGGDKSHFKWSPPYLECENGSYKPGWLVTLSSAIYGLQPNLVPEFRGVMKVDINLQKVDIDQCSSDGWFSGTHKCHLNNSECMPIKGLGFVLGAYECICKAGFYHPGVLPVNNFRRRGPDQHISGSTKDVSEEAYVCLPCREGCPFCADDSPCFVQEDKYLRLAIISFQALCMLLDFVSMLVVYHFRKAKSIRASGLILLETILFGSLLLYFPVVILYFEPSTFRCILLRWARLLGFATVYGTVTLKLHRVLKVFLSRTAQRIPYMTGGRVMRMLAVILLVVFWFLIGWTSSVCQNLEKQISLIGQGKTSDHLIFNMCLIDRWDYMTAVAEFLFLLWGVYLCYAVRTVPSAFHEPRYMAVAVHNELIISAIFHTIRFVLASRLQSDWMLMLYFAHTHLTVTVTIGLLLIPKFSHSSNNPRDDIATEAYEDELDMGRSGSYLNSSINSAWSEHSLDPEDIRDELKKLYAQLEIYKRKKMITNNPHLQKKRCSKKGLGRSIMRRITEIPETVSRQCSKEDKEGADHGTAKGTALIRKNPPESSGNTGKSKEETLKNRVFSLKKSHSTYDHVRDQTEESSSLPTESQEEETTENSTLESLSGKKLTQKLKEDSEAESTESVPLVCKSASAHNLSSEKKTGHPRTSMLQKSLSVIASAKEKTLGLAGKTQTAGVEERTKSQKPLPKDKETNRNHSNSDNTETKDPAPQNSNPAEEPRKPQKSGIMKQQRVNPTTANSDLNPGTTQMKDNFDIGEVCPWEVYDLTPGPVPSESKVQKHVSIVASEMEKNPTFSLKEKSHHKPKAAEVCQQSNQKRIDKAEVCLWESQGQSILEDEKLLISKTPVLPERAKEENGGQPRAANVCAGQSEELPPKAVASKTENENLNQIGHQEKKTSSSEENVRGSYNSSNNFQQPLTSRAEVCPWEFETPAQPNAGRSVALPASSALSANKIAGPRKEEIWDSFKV", "T1 sequence (P49802 1-495 partner)": "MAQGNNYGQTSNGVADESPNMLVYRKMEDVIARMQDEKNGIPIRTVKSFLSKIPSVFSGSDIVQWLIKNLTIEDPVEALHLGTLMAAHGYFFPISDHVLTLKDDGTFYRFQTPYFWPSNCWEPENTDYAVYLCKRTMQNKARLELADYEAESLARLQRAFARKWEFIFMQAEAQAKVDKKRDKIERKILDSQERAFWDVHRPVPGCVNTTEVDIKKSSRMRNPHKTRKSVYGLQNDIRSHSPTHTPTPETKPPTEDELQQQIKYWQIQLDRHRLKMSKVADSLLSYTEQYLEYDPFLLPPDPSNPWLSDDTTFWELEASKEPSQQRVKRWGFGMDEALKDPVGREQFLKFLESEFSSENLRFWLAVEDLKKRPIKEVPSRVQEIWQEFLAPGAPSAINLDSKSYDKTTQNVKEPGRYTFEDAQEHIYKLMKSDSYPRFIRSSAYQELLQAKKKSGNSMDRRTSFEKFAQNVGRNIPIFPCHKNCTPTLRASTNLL", "T1 sequence (O14775 1-395 partner)": "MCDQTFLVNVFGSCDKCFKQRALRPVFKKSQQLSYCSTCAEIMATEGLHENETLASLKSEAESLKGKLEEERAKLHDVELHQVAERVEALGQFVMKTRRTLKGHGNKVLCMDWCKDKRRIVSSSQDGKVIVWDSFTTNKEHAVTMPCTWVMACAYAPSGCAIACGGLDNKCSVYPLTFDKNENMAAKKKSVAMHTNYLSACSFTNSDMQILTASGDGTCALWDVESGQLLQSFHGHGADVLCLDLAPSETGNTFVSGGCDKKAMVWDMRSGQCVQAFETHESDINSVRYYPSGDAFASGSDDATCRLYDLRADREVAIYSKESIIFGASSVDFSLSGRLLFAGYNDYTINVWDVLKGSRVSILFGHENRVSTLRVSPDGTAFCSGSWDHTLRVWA", "assay": "cADDIS fluorescence-based cAMP assay, HEK293T/17 cells", "type": "cell-based", "conditions": "500 μM Gly, 15 min, forskolin; GPR158-RGS7/Gβ5, HEK293T/17", "method": "B. Effect of Gly on cAMP levels measured using CADDIS assay in HEK293T/17 cells (Gly conc. 500 μM). Binding of Gly to Cache domain of GPR158 blocks the GAP activity of GPR158-RGS7/Gβ5 complex on Gαo, resulting in lowering of CAMP levels. Data shown here represent the normalized fluorescence intensity upon Gly treatment (Mean±SEM from 3 independent experiments, Unpaired t-test, **p=0.0016)\nIn an effort to study the modulatory effects of Gly on CAMP through GPR158, the inventors took advantage of a fluorescence-based cAMP sensor cADDIS (Montana molecular) which involves Bacmam virus-based transduction of sensor into the cells (FIG. 17A).\nBriefly, HEK293T/17 cells were co-transfected with plasmids for GPR158, RGS7 and Gβ5 (150 μg/ml, GPR158: RGS7: Gβ5:4:1:1) by electroporation (Maxcyte). […] Before Glycine treatment, baseline fluorescence intensity was recorded using a fluorescence intensity module (FI Ex: 485 nm, Em: 520 nm) in Pherastar FSX microplate reader (BMG Labtech) followed by forskolin treatment for 15 min. Subsequently, the cells were treated with 500 μM Gly and fluorescence intensity was recorded. […]\nThe cADDIS assay for Gαi results in increase in fluorescence when CAMP is decreasing in the cells after drug treatment."}
{"smiles": "NCC(=O)O", "note": "[glycine]", "values": [{"measurement": "cADDIS fluorescence change (cAMP decrease)", "result": "significant increase in fluorescence"}]}
